Patent US20020111274A1, “1-alkyl-3-[1-(substituted phenyl) benzotriazol-6-yl] uracils” (BASF Aktiengesellschaft, priority 2000, published 2002)

Experiments:
[1] = system: ABUTH Velvetleaf; assay: Preemergence herbicidal evaluation, ABUTH; type: in vivo, Abutilon theophrasti, Medic.; conditions: preemergence
How it was run: (§1)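 Compound applied preemergence as an aqueous acetone spray onto freshly planted cups, dose equivalent approx. 0.013 to 0.800 kg/ha. Evaluation by rating at weeks 4–5.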

[2] = system: ECHOG Barnyardgrass; assay: Preemergence herbicidal evaluation, ECHOG; type: in vivo, Echinochloa crus-galli, (L.) Beau; conditions: preemergence
How it was run: as §1

[3] = system: ABUTH Velvetleaf; assay: Postemergence herbicidal evaluation, ABUTH; type: in vivo, Abutilon theophrasti, Medic.; conditions: postemergence spray, rated about two-three weeks after treatment
How it was run: (§2)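 Plants are raised for roughly two weeks, then treated postemergence with compound dispersed in acetone/water (80/20) plus 1.0% seed oil adjuvant, at rates of about 0.006 kg to 0.400 kg per hectare. After greenhouse care, damage is scored two to three weeks later.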

[4] = system: CASOB Sicklepod; assay: Preemergence herbicidal evaluation, CASOB; type: in vivo, Cassia obtusifolia, L.; conditions: preemergence
How it was run: as §1

[5] = system: ORYSAT Rice, Tebonnet; assay: Postemergence herbicidal evaluation, ORYSAT; type: in vivo, Oryza sativa, (L.); conditions: postemergence spray, rated about two-three weeks after treatment
How it was run: as §2

[6] = system: SETVI Foxtail, Green; assay: Preemergence herbicidal evaluation, SETVI; type: in vivo, Setaria viridis, (L.) Beau; conditions: preemergence
How it was run: as §1

[7] = system: ZEAMX Corn, Field; assay: Postemergence herbicidal evaluation, ZEAMX; type: in vivo, Zea mays, L. (Sammel-Bezeichnung); conditions: postemergence spray, rated about two-three weeks after treatment
How it was run: as §2

[8] = system: ZEAMX Corn, Field; assay: Preemergence herbicidal evaluation, ZEAMX; type: in vivo, Zea mays, L. (Sammel-Bezeichnung); conditions: preemergence
How it was run: as §1

[9] = system: CHEAL Lambsquarters, Common; assay: Preemergence herbicidal evaluation, CHEAL; type: in vivo, Chenopodium album, L.; conditions: preemergence
How it was run: as §1

[10] = system: TRZAWR Wheat, Winter, cv Riband; assay: Preemergence herbicidal evaluation, TRZAWR; type: in vivo, Triticum aestivum; conditions: preemergence
How it was run: as §1

[11] = system: GALAP Galium; assay: Postemergence herbicidal evaluation, GALAP; type: in vivo, Galium aparine; conditions: postemergence spray, rated about two-three weeks after treatment
How it was run: as §2

[12] = system: CASOB Sicklepod; assay: Postemergence herbicidal evaluation, CASOB; type: in vivo, Cassia obtusifolia, L.; conditions: postemergence spray, rated about two-three weeks after treatment
How it was run: as §2

[13] = system: GALAP Galium; assay: Preemergence herbicidal evaluation, GALAP; type: in vivo, Galium aparine; conditions: preemergence
How it was run: as §1

[14] = system: TRZAWR Wheat, Winter, cv Riband; assay: Postemergence herbicidal evaluation, TRZAWR; type: in vivo, Triticum aestivum; conditions: postemergence spray, rated about two-three weeks after treatment
How it was run: as §2

[15] = system: GLXMAW Soybean, Williams; assay: Preemergence herbicidal evaluation, GLXMAW; type: in vivo, Glycine max, (L.) Merr. cv Williams; conditions: preemergence
How it was run: as §1

[16] = system: ORYSAT Rice, Tebonnet; assay: Preemergence herbicidal evaluation, ORYSAT; type: in vivo, Oryza sativa, (L.); conditions: preemergence
How it was run: as §1

[17] = system: AMBEL Ragweed, Common; assay: Postemergence herbicidal evaluation, AMBEL; type: in vivo, Ambrosia artemisifolia, L.; conditions: postemergence spray, rated about two-three weeks after treatment
How it was run: as §2

[18] = system: IPOHE Morningglory, Ivyleaf; assay: Postemergence herbicidal evaluation, IPOHE; type: in vivo, Ipomoea hederacea, (L.) Jacq.; conditions: postemergence spray, rated about two-three weeks after treatment
How it was run: as §2

[19] = system: IPOHE Morningglory, Ivyleaf; assay: Preemergence herbicidal evaluation, IPOHE; type: in vivo, Ipomoea hederacea, (L.) Jacq.; conditions: preemergence
How it was run: as §1

[20] = system: AMBEL Ragweed, Common; assay: Preemergence herbicidal evaluation, AMBEL; type: in vivo, Ambrosia artemisifolia, L.; conditions: preemergence
How it was run: as §1

[21] = system: GLXMAW Soybean, Williams; assay: Postemergence herbicidal evaluation, GLXMAW; type: in vivo, Glycine max, (L.) Merr. cv Williams; conditions: postemergence spray, rated about two-three weeks after treatment
How it was run: as §2

[22] = system: CHEAL Lambsquarters, Common; assay: Postemergence herbicidal evaluation, CHEAL; type: in vivo, Chenopodium album, L.; conditions: postemergence spray, rated about two-three weeks after treatment
How it was run: as §2

[23] = system: ECHOG Barnyardgrass; assay: Postemergence herbicidal evaluation, ECHOG; type: in vivo, Echinochloa crus-galli, (L.) Beau; conditions: postemergence spray, rated about two-three weeks after treatment
How it was run: as §2

[24] = system: SETVI Foxtail, Green; assay: Postemergence herbicidal evaluation, SETVI; type: in vivo, Setaria viridis, (L.) Beau; conditions: postemergence spray, rated about two-three weeks after treatment
How it was run: as §2

## COC(=O)COc1ccc(C)cc1-n1nnc2cc(F)c(-n3c(=O)cc(C(F)(F)F)n(C)c3=O)cc21 [Example 34]
[1]; rate 0.016 kg/ha
  ABUTH herbicidal rating: 9.0
[1]; rate 0.032 kg/ha
  ABUTH herbicidal rating: 9.0
[1]; rate 0.062 kg/ha
  ABUTH herbicidal rating: 9.0
[1]; rate 0.125 kg/ha
  ABUTH herbicidal rating: 9.0
[2]; rate 0.016 kg/ha
  ECHCG herbicidal rating: 4.0
[2]; rate 0.032 kg/ha
  ECHCG herbicidal rating: 2.0
[2]; rate 0.062 kg/ha
  ECHCG herbicidal rating: 5.0
[2]; rate 0.125 kg/ha
  ECHCG herbicidal rating: 7.5
[3]; 0.008 kg/ha
  Postemergence herbicidal rating ABUTH: 9.0
[3]; 0.016 kg/ha
  Postemergence herbicidal rating ABUTH: 9.0
[3]; 0.032 kg/ha
  Postemergence herbicidal rating ABUTH: 9.0
[3]; 0.062 kg/ha
  Postemergence herbicidal rating ABUTH: 9.0
[4]; rate 0.032 kg/ha
  CASOB herbicidal rating: 2.0
[4]; rate 0.062 kg/ha
  CASOB herbicidal rating: 2.5
[4]; rate 0.125 kg/ha
  CASOB herbicidal rating: 6.0
[5]; 0.008 kg/ha
  Postemergence herbicidal rating ORYSAT: 3.0
[5]; 0.016 kg/ha
  Postemergence herbicidal rating ORYSAT: 4.0
[5]; 0.032 kg/ha
  Postemergence herbicidal rating ORYSAT: 6.5
[5]; 0.062 kg/ha
  Postemergence herbicidal rating ORYSAT: 7.5
[6]; rate 0.016 kg/ha
  SETVI herbicidal rating: 7.0
[6]; rate 0.032 kg/ha
  SETVI herbicidal rating: 6.0
[6]; rate 0.062 kg/ha
  SETVI herbicidal rating: 9.0
[6]; rate 0.125 kg/ha
  SETVI herbicidal rating: 9.0
[7]; 0.008 kg/ha
  Postemergence herbicidal rating ZEAMX: 7.0
[7]; 0.016 kg/ha
  Postemergence herbicidal rating ZEAMX: 7.5
[7]; 0.032 kg/ha
  Postemergence herbicidal rating ZEAMX: 8.5
[7]; 0.062 kg/ha
  Postemergence herbicidal rating ZEAMX: 9.0
[8]; rate 0.016 kg/ha
  ZEAMX herbicidal rating: 0.0
[8]; rate 0.032 kg/ha
  ZEAMX herbicidal rating: 0.5
[8]; rate 0.062 kg/ha
  ZEAMX herbicidal rating: 3.5
[8]; rate 0.125 kg/ha
  ZEAMX herbicidal rating: 4.0
[9]; rate 0.016 kg/ha
  CHEAL herbicidal rating: 9.0
[9]; rate 0.032 kg/ha
  CHEAL herbicidal rating: 9.0
[9]; rate 0.062 kg/ha
  CHEAL herbicidal rating: 9.0
[9]; rate 0.125 kg/ha
  CHEAL herbicidal rating: 9.0
[10]; rate 0.016 kg/ha
  TRZAWR herbicidal rating: 1.0
[10]; rate 0.032 kg/ha
  TRZAWR herbicidal rating: 1.0
[10]; rate 0.062 kg/ha
  TRZAWR herbicidal rating: 1.0
[10]; rate 0.125 kg/ha
  TRZAWR herbicidal rating: 3.0
[11]; 0.008 kg/ha
  Postemergence herbicidal rating GALAP: 0.0
[11]; 0.016 kg/ha
  Postemergence herbicidal rating GALAP: 3.0
[11]; 0.032 kg/ha
  Postemergence herbicidal rating GALAP: 4.0
[11]; 0.062 kg/ha
  Postemergence herbicidal rating GALAP: 4.0
[12]; 0.008 kg/ha
  Postemergence herbicidal rating CASOB: 0.0
[12]; 0.016 kg/ha
  Postemergence herbicidal rating CASOB: 0.0
[12]; 0.032 kg/ha
  Postemergence herbicidal rating CASOB: 1.0
[12]; 0.062 kg/ha
  Postemergence herbicidal rating CASOB: 5.0
[13]; rate 0.016 kg/ha
  GALAP herbicidal rating: 0.0
[13]; rate 0.032 kg/ha
  GALAP herbicidal rating: 0.0
[13]; rate 0.062 kg/ha
  GALAP herbicidal rating: 0.0
[13]; rate 0.125 kg/ha
  GALAP herbicidal rating: 7.0
[14]; 0.008 kg/ha
  Postemergence herbicidal rating TRZAWR: 5.0
[14]; 0.016 kg/ha
  Postemergence herbicidal rating TRZAWR: 5.0
[14]; 0.032 kg/ha
  Postemergence herbicidal rating TRZAWR: 7.0
[14]; 0.062 kg/ha
  Postemergence herbicidal rating TRZAWR: 8.0
[15]; rate 0.016 kg/ha
  GLXMAW herbicidal rating: 1.0
[15]; rate 0.032 kg/ha
  GLXMAW herbicidal rating: 1.0
[15]; rate 0.062 kg/ha
  GLXMAW herbicidal rating: 1.5
[15]; rate 0.125 kg/ha
  GLXMAW herbicidal rating: 2.0
[16]; rate 0.016 kg/ha
  ORYSAT herbicidal rating: 1.0
[16]; rate 0.032 kg/ha
  ORYSAT herbicidal rating: 2.5
[16]; rate 0.062 kg/ha
  ORYSAT herbicidal rating: 3.0
[16]; rate 0.125 kg/ha
  ORYSAT herbicidal rating: 5.0
[17]; 0.008 kg/ha
  Postemergence herbicidal rating AMBEL: 0.0
[17]; 0.016 kg/ha
  Postemergence herbicidal rating AMBEL: 3.0
[17]; 0.032 kg/ha
  Postemergence herbicidal rating AMBEL: 9.0
[17]; 0.062 kg/ha
  Postemergence herbicidal rating AMBEL: 9.0
[18]; 0.008 kg/ha
  Postemergence herbicidal rating IPOHE: 9.0
[18]; 0.016 kg/ha
  Postemergence herbicidal rating IPOHE: 9.0
[18]; 0.032 kg/ha
  Postemergence herbicidal rating IPOHE: 9.0
[18]; 0.062 kg/ha
  Postemergence herbicidal rating IPOHE: 9.0
[19]; rate 0.032 kg/ha
  IPOHE herbicidal rating: 9.0
[19]; rate 0.062 kg/ha
  IPOHE herbicidal rating: 5.0
[19]; rate 0.125 kg/ha
  IPOHE herbicidal rating: 9.0
[20]; rate 0.016 kg/ha
  AMBEL herbicidal rating: 1.0
[20]; rate 0.032 kg/ha
  AMBEL herbicidal rating: 5.0
[20]; rate 0.062 kg/ha
  AMBEL herbicidal rating: 6.0
[20]; rate 0.125 kg/ha
  AMBEL herbicidal rating: 8.0
[21]; 0.008 kg/ha
  Postemergence herbicidal rating GLXMAW: 5.0
[21]; 0.016 kg/ha
  Postemergence herbicidal rating GLXMAW: 6.5
[21]; 0.032 kg/ha
  Postemergence herbicidal rating GLXMAW: 7.0
[21]; 0.062 kg/ha
  Postemergence herbicidal rating GLXMAW: 7.0
[22]; 0.008 kg/ha
  Postemergence herbicidal rating CHEAL: 2.0
[22]; 0.016 kg/ha
  Postemergence herbicidal rating CHEAL: 3.0
[22]; 0.032 kg/ha
  Postemergence herbicidal rating CHEAL: 3.0
[22]; 0.062 kg/ha
  Postemergence herbicidal rating CHEAL: 9.0
[23]; 0.008 kg/ha
  Postemergence herbicidal rating ECHCG: 7.0
[23]; 0.016 kg/ha
  Postemergence herbicidal rating ECHCG: 9.0
[23]; 0.032 kg/ha
  Postemergence herbicidal rating ECHCG: 9.0
[23]; 0.062 kg/ha
  Postemergence herbicidal rating ECHCG: 9.0
[24]; 0.008 kg/ha
  Postemergence herbicidal rating SETVI: 9.0
[24]; 0.016 kg/ha
  Postemergence herbicidal rating SETVI: 9.0
[24]; 0.032 kg/ha
  Postemergence herbicidal rating SETVI: 9.0
[24]; 0.062 kg/ha
  Postemergence herbicidal rating SETVI: 9.0
